In PubChem BioAssay AID1259407 (Chemical Carcinogenesis Research Information System (CCRIS), 2018):
The source made the active and inactive calls. The rule behind the calls is not given here.

System: CCRIS mutagenicity, Ames/micronucleus/aberration tests
Assay: CCRIS mutagenicity studies
[1] = Test System: AMES SALMONELLA TYPHIMURIUM, Strain/Indicator: TA100, Metabolic Activation: RAT, LIVER, S-9, AROCLOR 1254, Method: STANDARD PLATE
[2] = Test System: AMES SALMONELLA TYPHIMURIUM, Strain/Indicator: TA98, Metabolic Activation: NONE, Method: PREINCUBATION
[3] = Test System: AMES SALMONELLA TYPHIMURIUM, Strain/Indicator: TA100, Metabolic Activation: NONE, Method: PREINCUBATION
[4] = Test System: AMES SALMONELLA TYPHIMURIUM, Strain/Indicator: TA98, Metabolic Activation: NONE, Method: STANDARD PLATE
[5] = Test System: AMES SALMONELLA TYPHIMURIUM, Strain/Indicator: TA100, Metabolic Activation: NONE, Method: STANDARD PLATE
[6] = Test System: AMES SALMONELLA TYPHIMURIUM, Strain/Indicator: TA100, Metabolic Activation: RAT, LIVER, S-9, PCB, Method: PREINCUBATION

COC(=O)C(Cl)Cl was tested, and the mutagenic call (End Point: IN VITRO CHROMOSOMAL ABERRATIONS, Test System: CHL CELLS, Metabolic Activation: NONE) was “active; positive (structural changes); precipitation of test chemical observed above 1.6”, the mutagenic call (End Point: IN VITRO CHROMOSOMAL ABERRATIONS, Test System: CHL CELLS, Metabolic Activation: RAT, LIVER, S-9, SODIUM PHENOBARBITAL AND 5,6-BENZOFLAVONE) was “active; positive (structural changes); precipitation of test chemical observed above 2.0” and the mutagenic call (Test System: AMES SALMONELLA TYPHIMURIUM, Strain/Indicator: TA102, Metabolic Activation: RAT, LIVER, S-9, PHENOBARBITAL AND 5,6-BENZOFLAVONE, Method: STANDARD PLATE) was “active; positive”. The mutagenic call (Test System: AMES SALMONELLA TYPHIMURIUM, Strain/Indicator: TA2638, Metabolic Activation: RAT, LIVER, S-9, PHENOBARBITAL AND 5,6-BENZOFLAVONE, Method: STANDARD PLATE) was “active; positive”, the mutagenic call (Test System: E. COLI, Strain/Indicator: WP2 (PKM101), Metabolic Activation: RAT, LIVER, S-9, PHENOBARBITAL AND 5,6-BENZOFLAVONE, Method: STANDARD PLATE) was “active; positive” and the mutagenic call (Test System: E. COLI, Strain/Indicator: WP2 UVRA (PKM101), Metabolic Activation: RAT, LIVER, S-9, PHENOBARBITAL AND 5,6-BENZOFLAVONE, Method: STANDARD PLATE) was “active; positive”.

CCOc1cc2c(c3ccc4ccccc4c13)CCC2=O was tested, and the mutagenic call [1] was “inactive; negative”.

C[n+]1ccccc1-c1cccc[n+]1C was tested, and the mutagenic call (Test System: AMES SALMONELLA TYPHIMURIUM, Strain/Indicator: TA97, Metabolic Activation: RAT, LIVER, S-9, PHENOBARBITAL, Method: STANDARD PLATE) was “active; positive”, the mutagenic call (Test System: AMES SALMONELLA TYPHIMURIUM, Strain/Indicator: TA98, Metabolic Activation: RAT, LIVER, S-9, PHENOBARBITAL, Method: STANDARD PLATE) was “active; positive” and the mutagenic call (Test System: AMES SALMONELLA TYPHIMURIUM, Strain/Indicator: TA100, Metabolic Activation: RAT, LIVER, S-9, PHENOBARBITAL, Method: STANDARD PLATE) was “active; positive”. The mutagenic call (Test System: AMES SALMONELLA TYPHIMURIUM, Strain/Indicator: TA1535, Metabolic Activation: RAT, LIVER, S-9, PHENOBARBITAL, Method: STANDARD PLATE) was “inactive; negative”, the mutagenic call (Test System: AMES SALMONELLA TYPHIMURIUM, Strain/Indicator: TA1537, Metabolic Activation: RAT, LIVER, S-9, PHENOBARBITAL, Method: STANDARD PLATE) was “inactive; negative” and the mutagenic call (Test System: AMES SALMONELLA TYPHIMURIUM, Strain/Indicator: TA1538, Metabolic Activation: RAT, LIVER, S-9, PHENOBARBITAL, Method: STANDARD PLATE) was “inactive; negative”.

With c1ccc(P(c2ccccc2)c2ccccc2)cc1 the mutagenic call (Test System: AMES SALMONELLA TYPHIMURIUM, Strain/Indicator: TA98, Metabolic Activation: HAMSTER, LIVER, S-9, AROCLOR 1254 (10%), Method: PREINCUBATION) was “inactive; negative”, the mutagenic call [2] was “inactive; negative” and the mutagenic call (Test System: AMES SALMONELLA TYPHIMURIUM, Strain/Indicator: TA98, Metabolic Activation: RAT, LIVER, S-9, AROCLOR 1254 (10%), Method: PREINCUBATION) was “inactive; negative”. For the same molecule, the mutagenic call (Test System: AMES SALMONELLA TYPHIMURIUM, Strain/Indicator: TA100, Metabolic Activation: HAMSTER, LIVER, S-9, AROCLOR 1254 (10%), Method: PREINCUBATION) was “inactive; negative”, the mutagenic call [3] was “inactive; negative” and the mutagenic call (Test System: AMES SALMONELLA TYPHIMURIUM, Strain/Indicator: TA100, Metabolic Activation: RAT, LIVER, S-9, AROCLOR 1254 (10%), Method: PREINCUBATION) was “inactive; negative”. The mutagenic call (Test System: AMES SALMONELLA TYPHIMURIUM, Strain/Indicator: TA1535, Metabolic Activation: HAMSTER, LIVER, S-9, AROCLOR 1254 (10%), Method: PREINCUBATION) was “inactive; negative”, the mutagenic call (Test System: AMES SALMONELLA TYPHIMURIUM, Strain/Indicator: TA1535, Metabolic Activation: NONE, Method: PREINCUBATION) was “inactive; negative” and the mutagenic call (Test System: AMES SALMONELLA TYPHIMURIUM, Strain/Indicator: TA1535, Metabolic Activation: RAT, LIVER, S-9, AROCLOR 1254 (10%), Method: PREINCUBATION) was “inactive; negative”. The mutagenic call (Test System: AMES SALMONELLA TYPHIMURIUM, Strain/Indicator: TA1537, Metabolic Activation: HAMSTER, LIVER, S-9, AROCLOR 1254 (10%), Method: PREINCUBATION) was “inactive; negative”, the mutagenic call (Test System: AMES SALMONELLA TYPHIMURIUM, Strain/Indicator: TA1537, Metabolic Activation: NONE, Method: PREINCUBATION) was “inactive; negative” and the mutagenic call (Test System: AMES SALMONELLA TYPHIMURIUM, Strain/Indicator: TA1537, Metabolic Activation: RAT, LIVER, S-9, AROCLOR 1254 (10%), Method: PREINCUBATION) was “inactive; negative”.

OCc1cccc2c1-c1cccc3cccc-2c13 was tested, and the mutagenic call [4] was “inactive; negative” and the mutagenic call [5] was “inactive; negative”.

In the case of N#Cc1cccc(/C=C/c2ccc([N+](=O)[O-])cc2)c1, the mutagenic call (Test System: AMES SALMONELLA TYPHIMURIUM, Strain/Indicator: TA98(NR), Metabolic Activation: NONE, Method: STANDARD PLATE) is reported as “active; positive”, the mutagenic call (Test System: AMES SALMONELLA TYPHIMURIUM, Strain/Indicator: TA98 (NR), Metabolic Activation: S-9, Method: STANDARD PLATE) is reported as “active; positive” and the mutagenic call [4] is reported as “active; positive”. For the same molecule, the mutagenic call (Test System: AMES SALMONELLA TYPHIMURIUM, Strain/Indicator: TA98, Metabolic Activation: S-9, Method: STANDARD PLATE) was “active; positive”, the mutagenic call (Test System: AMES SALMONELLA TYPHIMURIUM, Strain/Indicator: TA100 (NR), Metabolic Activation: NONE, Method: STANDARD PLATE) was “inactive; negative” and the mutagenic call (Test System: AMES SALMONELLA TYPHIMURIUM, Strain/Indicator: TA100(NR), Metabolic Activation: S-9, Method: STANDARD PLATE) was “inactive; negative”. The mutagenic call [5] was “active; positive” and the mutagenic call (Test System: AMES SALMONELLA TYPHIMURIUM, Strain/Indicator: TA100, Metabolic Activation: S-9, Method: STANDARD PLATE) was “active; positive”.

With ONc1ccccc1 the mutagenic call [6] was “active; positive” and the mutagenic call (Test System: E. COLI, Strain/Indicator: WP2 UVRA, Metabolic Activation: NONE, Method: FLUCTUATION TEST) was “inactive; negative”.

For Cc1ccc([N+]#N)cc1, the mutagenic call [5] was “active; positive”, the mutagenic call (Test System: AMES SALMONELLA TYPHIMURIUM, Strain/Indicator: TA102, Metabolic Activation: NONE, Method: STANDARD PLATE) was “active; positive” and the mutagenic call (Test System: CHINESE HAMSTER V-79, Strain/Indicator: V-79/6-THIOGUANINE, Metabolic Activation: NONE) was “active; positive”.

In the case of Nc1cc([N+](=O)[O-])c(CO)c([N+](=O)[O-])c1, the mutagenic call (End Point: In vitro chromosomal aberrations, Test System: V79 Chinese hamster fibroblasts, Metabolic Activation: None) is reported as “inactive; negative”, the mutagenic call (Test System: Ames Salmonella typhimurium, Strain/Indicator: TA98, Metabolic Activation: None, Method: Standard plate) is reported as “active; positive” and the mutagenic call (Test System: Ames Salmonella typhimurium, Strain/Indicator: TA98, Metabolic Activation: Rat, Liver, S-9, Method: Standard plate) is reported as “active; positive”. For the same molecule, the mutagenic call (Test System: Ames Salmonella typhimurium, Strain/Indicator: TA98NR, Metabolic Activation: None, Method: Standard plate) was “active; positive, ta98nr is the nitroreductase-deficient derivative of ta98”, the mutagenic call (Test System: Ames Salmonella typhimurium, Strain/Indicator: TA100, Metabolic Activation: None, Method: Standard plate) was “active; positive” and the mutagenic call (Test System: Ames Salmonella typhimurium, Strain/Indicator: TA100, Metabolic Activation: Rat, Liver, S-9, Method: Standard plate) was “active; positive”.

Nc1cccc(-c2ccccc2)c1 was tested, and the mutagenic call [2] was “inactive; negative”, the mutagenic call (Test System: AMES SALMONELLA TYPHIMURIUM, Strain/Indicator: TA98, Metabolic Activation: RAT LIVER S-9, AROCLOR 1254, Method: PREINCUBATION) was “inactive; negative” and the mutagenic call (Test System: AMES SALMONELLA TYPHIMURIUM, Strain/Indicator: TA98, Metabolic Activation: RAT, LIVER, S-9, AROCLOR 1254 (4%), Method: STANDARD PLATE) was “active; positive”. For the same molecule, the mutagenic call (Test System: AMES SALMONELLA TYPHIMURIUM, Strain/Indicator: TA98, Metabolic Activation: RAT, LIVER, S-9, AROCLOR 1254, Method: STANDARD PLATE) was “inactive; negative”, the mutagenic call [3] was “inactive; negative” and the mutagenic call (Test System: AMES SALMONELLA TYPHIMURIUM, Strain/Indicator: TA100, Metabolic Activation: RAT LIVER S-9, AROCLOR 1254, Method: PREINCUBATION) was “inactive; negative”. For the same molecule, the mutagenic call [1] was “inactive; negative”.

For COCc1c(O)cc2c(c1O)C(=O)c1ccccc1C2=O, the mutagenic call [2] was “active; positive”, the mutagenic call (Test System: AMES SALMONELLA TYPHIMURIUM, Strain/Indicator: TA98, Metabolic Activation: RAT, LIVER, S-9, PCB, Method: PREINCUBATION) was “active; positive” and the mutagenic call [3] was “active; positive”. For the same molecule, the mutagenic call [6] was “active; positive”.
